Source: patent US10865388B2, “Method for identifying anti-cancer agents using an in vitro cell culture system that maintains cancer cell stemness” (National Taiwan University, priority 2014, dated 2020)

What was measured:
Type in all cases: cell-based, human
[1] = system: CLS1/CAF; experiment: Drug resistance assay (MTT), CLS1/CAF; conditions: 48 h drug treatment, CLS1 co-cultured with CAFs
Protocol: (§1) An MTT [3-(4,5-dimethylthiazolyl-2)-2,5-diphenyltetrazolium bromide] (Sigma) assay was performed to determine cell proliferation. Briefly, CLS1/CAF and CLS1 cells were added to 96-well plates at a density of 5×10^3 cells/well. After incubating for 24 h, the cells were serum-starved overnight. The cells were then treated with different concentrations (0-50 μM) of the drugs docetaxel, cisplatin, etoposide and vinorelbine for 48 h. After 48 h, the culture medium containing 0.5 mg/ml MTT was added to each well. After 1.5 h of incubation, the medium was removed, and DMSO was added to the plates. The color intensity of the solubilized formazan was measured at 570 nm in an ELISA plate reader (Vector3; Perkin-Elmer, USA).

[2] = system: CLS1; experiment: Drug resistance assay (MTT), CLS1; conditions: 48 h drug treatment, CLS1 after CAF removal
Protocol: as §1

[3] = system: Nanog; experiment: RT Q-PCR analysis of the stem cell marker Nanog; conditions: for Nanog expression in CLS1 cells treated with cytokine: IGF-II 10 ng/ml, HGF 10 ng/ml, sCD14 500 ng/ml (FIG. 4f)
Protocol: The expression level of stemness-related genes and validation of the Affymetrix microarray data for CAF, CLS1/CAF and CLS1 were performed through RT Q-PCR using an ABI Prism 7900 Sequencer (Applied Biosystems).
TATA-box binding protein (TBP) and β-actin were used as internal controls. The expression levels were normalized to TBP and defined as −ΔCT=−[CTtarget−CTTBP]. The relative expression ratio was calculated as the fold change relative to the control (2^−ΔΔCT). The experiments were performed in triplicate.

[4] = system: lung cancer cells co-cultured with CAFs; experiment: Image-based high-content analysis of Nanog-positive cells per colony
Protocol: Lung CSCs or cancer cells (200 cells/well) were added to 96-well plates pre-seeded with CAFs (2000 cells/well) and were allowed to attach to the plates overnight. After different treatments, cells were processed following the immunofluorescence protocol with the Nanog (ReproCELL) (1:300) primary antibody (as the cancer stem-cell marker) and the mouse anti-human CD90 FITC-conjugated (5E10, BD Pharmingen) antibody (as the CAF marker) overnight at 4° C. Next, the primary antibodies were incubated with the TRITC-conjugated secondary antibody [goat anti-rabbit IgG (H+L) Conjugate, Invitrogen] for 2 h at room temperature. The nuclei were counterstained with the Hoechst 33342 dye (Invitrogen). To determine the background fluorescence level of the secondary antibody, each plate included control wells containing only the secondary antibody (stained with the Hoechst 33342 dye). Images of the stained cells were acquired using the automated fluorescence microscopy platform.
Image acquisition and analysis were performed as follows. Stained cells were imaged using the high-content analysis platform with a 4× objective. […] The images were analyzed using the MetaXpress® software (Molecular Devices). […] Finally, the TRITC-stained cell count and the total cell count were determined. The stemness of each colony was calculated as the ratio of Nanog-positive (TRITC-stained) cells to total cells. […]

[5] = system: CLS1 cells; experiment: Ultra-low sphere-forming assay, CLS1; conditions: IGF-II 10 and 100 ng/ml, 21 days (FIG. 5b)
Protocol: An ultra-low sphere-forming assay was performed as previously described (Dontu, et al., 2003) and modified as the following procedures. A single-cell suspension of lung CSCs in MCDB201 serum-free medium (Invitrogen) supplemented with 20 ng/ml EGF (Sigma) and 20 ng/ml bFGF (Invitrogen) was seeded in ultra-low adherent 24-well plates (Corning, Corning, N.Y., USA; 200 viable cells/well). The medium was supplemented with fresh growth factors twice weekly. After 3 weeks, the spheres were examined under the Axiovert 200 microscope.

[6] = system: IGF1R-p/IGF1R, AKT-p/AKT and Nanog; experiment: Western blot analysis of IGF1R, AKT and Nanog; conditions: CLS1, CL141 and CL152; IGF-II 10 or 100 ng/ml, time-dependent (FIG. 5c)
Protocol: The detailed procedures were performed as described in Zoller, Nat Rev Cancer 11:254-267 (2011). The primary antibodies for p-IGF1R (Y1316, 6113S; 1:1000), p-AKT (D9E; 1:1000), AKT (927L; 1:1000) and Nanog (D73G4; 1:1000) were purchased from Cell Signaling Technology, Inc., and the primary antibody for IGF1R (C-20; 1:1000) was purchased from Santa Cruz. Monoclonal mouse anti-β-actin (Chemicon, Millipore; 1:5000) was used as a loading control. The membranes were then washed three times with TBST, followed by incubation with horseradish peroxidase (HRP)-conjugated secondary antibody (1:5,000) in TBST/2% skim milk. Bound antibody was detected using the Enhanced Chemiluminescence System (Santa Cruz, Calif.). Chemiluminescent signals were captured using the Fujifilm LAS 3000 system (Fujifilm, Tokyo, Japan). All experiments were performed at least three times in duplicate.

[7] = system: ALDH activity; experiment: ALDEFLUOR assay (flow cytometry); conditions: CLS1/CAFs, A549, H1975 and EKVX; IGF-II 100 ng/ml (FIG. 15)
Protocol: ALDH activity of cells was measured using the ALDEFLUOR assay kit (StemCell Technologies) based on the manufacturer's protocol and a previous report. Ginestier, et al., 2007. After different treatments, the cells were suspended in the ALDEFLUOR assay buffer containing the ALDH substrate BODIPY-aminoacetaldehyde (BAAA, 1 mM per 1×10^6 cells, incubate 30 min at 37° C.). As a negative control, the cell sample was treated with diethylaminobenzaldehyde (DEAB), a specific ALDH inhibitor. Nonviable cells were identified by propidium iodide staining and analysis using the FACSAria instrument (Becton Dickinson).

CCC1=C[C@@H]2CN(C1)Cc1c([nH]c3ccccc13)[C@@](C(=O)OC)(c1cc3c(cc1OC)N(C)[C@H]1[C@@](O)(C(=O)OC)[C@H](OC(C)=O)[C@]4(CC)C=CCN5CC[C@]31[C@@H]54)C2 [Vinorelbine ditartrate]
IC50 ([1]; Homo sapiens): 775 nM
IC50 ([2]; Homo sapiens): 28.5 nM

IGF-II: growth factor secreted by CAFs, added as cytokine to cancer cells
Nanog expression ([3]; CLS1, A549, H1975 and H460 treated with IGF-II 100 ng/ml (FIG. 5a)): increased
Nanog expression in CLS1 cells treated with cytokine [3]: induced
number of Nanog-positive cells per colony ([4]; IGF-II 10 and 100 ng/ml, CLS1 cells (FIG. 14b)): facilitated
sphere numbers and size [5]: enlarged
IGF1R and Akt phosphorylation and downstream Nanog expression [6]: induced
ALDEFLUOR-positive ratio [7]: increased

N.N.[Cl][Pt][Cl] [Cisplatin]
IC50 [1]: 310 nM
IC50 [2]: 200 nM

CC(=O)O[C@@]12CO[C@@H]1C[C@H](O)[C@@]1(C)C(=O)[C@H](O)C3=C(C)[C@@H](OC(=O)[C@H](O)[C@@H](NC(=O)OC(C)(C)C)c4ccccc4)C[C@@](O)([C@@H](OC(=O)c4ccccc4)[C@H]21)C3(C)C [Docetaxel]
IC50 ([1]; Homo sapiens): 54.8 nM
IC50 ([2]; Homo sapiens): 4.2 nM

COc1cc([C@@H]2c3cc4c(cc3[C@@H](O[C@@H]3O[C@@H]5CO[C@@H](C)O[C@H]5[C@H](O)[C@H]3O)[C@H]3COC(=O)[C@H]23)OCO4)cc(OC)c1O [Etoposide (VP-16), Etoposide]
IC50 ([1]; Homo sapiens): 109000 nM
IC50 ([2]; Homo sapiens): 1060 nM

HGF: hepatocyte growth factor, cytokine added to CLS1 cells
Nanog expression in CLS1 cells treated with cytokine [3]: induced

COc1cc([C@@H]2c3cc4c(cc3[C@H](O)[C@H]3COC(=O)[C@@H]23)OCO4)cc(OC)c1OC [PPP, picropodophyllin]
Nanog-positive cells in each colony ([4]; A549, EKVX, CLS1, CL141 and CL152 co-cultured with CAFs, antibody 1 μg/ml, inhibitors 1 μM/ml (FIG. 6a)): significantly inhibited
